In patent US20250101038A1, “COMPOUNDS” (priority 2021, published 2025):
“And” between values parts separate entries of the source, which are not always exact repeats. Identical values can stand only once. Like-named read-outs stand apart in the source and are kept apart here.

Key:
5-HT2A receptor = target: T1, 5-HT2A receptor (Homo sapiens, UniProt P28223); assay: FLIPR Ca2+ flux functional assay, 5-HT2A; format: cell-based
T1 construct: host or cells: HEK293

5-HT2B receptor = target: T2, 5-HT2B receptor (Homo sapiens, UniProt P41595); assay: cell-based
T2 construct: host or cells: CHO-K1
T2 sequence (P41595 whole entry): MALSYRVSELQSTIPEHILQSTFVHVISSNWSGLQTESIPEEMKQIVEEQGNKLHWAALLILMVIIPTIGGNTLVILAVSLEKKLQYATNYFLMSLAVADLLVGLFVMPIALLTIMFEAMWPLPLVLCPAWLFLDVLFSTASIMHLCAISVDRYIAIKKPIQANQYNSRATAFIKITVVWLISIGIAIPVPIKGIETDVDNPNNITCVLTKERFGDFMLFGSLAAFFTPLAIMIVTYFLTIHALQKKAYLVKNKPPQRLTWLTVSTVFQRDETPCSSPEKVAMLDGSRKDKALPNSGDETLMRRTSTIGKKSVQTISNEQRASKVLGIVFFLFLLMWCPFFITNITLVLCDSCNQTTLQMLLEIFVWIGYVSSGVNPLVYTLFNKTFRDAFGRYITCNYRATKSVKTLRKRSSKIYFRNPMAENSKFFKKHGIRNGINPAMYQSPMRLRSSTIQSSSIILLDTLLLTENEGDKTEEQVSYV

5-HT2C receptor = target: T3, 5-HT2C receptor (Homo sapiens, UniProt P28335); assay: cell-based
T3 construct: host or cells: HEK293
T3 sequence (P28335 33-458): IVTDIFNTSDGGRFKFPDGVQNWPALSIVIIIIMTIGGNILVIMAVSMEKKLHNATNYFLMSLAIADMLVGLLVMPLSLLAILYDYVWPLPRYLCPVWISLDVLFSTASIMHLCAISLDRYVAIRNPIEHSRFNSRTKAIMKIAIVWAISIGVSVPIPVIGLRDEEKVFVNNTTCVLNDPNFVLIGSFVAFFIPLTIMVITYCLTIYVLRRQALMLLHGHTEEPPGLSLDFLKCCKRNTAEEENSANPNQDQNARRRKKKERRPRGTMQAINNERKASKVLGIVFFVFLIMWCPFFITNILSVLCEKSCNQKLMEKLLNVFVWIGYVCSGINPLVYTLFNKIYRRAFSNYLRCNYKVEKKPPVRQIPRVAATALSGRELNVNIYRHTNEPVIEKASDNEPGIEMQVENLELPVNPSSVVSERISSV

[1] = In vivo pharmacokinetics, plasma and brain exposure after IP dosing; set-up: species or system male C57BL/6 mice
Description: The systemic exposure of selected examples was studied in non-fasted male C57BL/6 mice weighing between 18.9-25.5 g. Mice had access to food and water ad libitum throughout the pre- and post-dose sampling period.
On the day of dosing, the formulation of each compound was prepared by dissolving solid compound in phosphate buffer saline (50 mM) using vortexing, creating colourless solutions (pH 6.4-6.5) for each compound.
Compounds were dosed to mice by IP injection (10 mL/kg dose volume via a 27G needle; n=9 mice per compound) and blood samples were collected at 5 and 30 min; 1, 2 and 4 h post-dose (n=3 mice per time point for each compound). A maximum of three blood samples were obtained from each mouse, with plasma samples being taken via submandibular bleed (approximately 120 μL). Once collected, blood samples were centrifuged immediately, supernatant plasma was removed, and stored at −80° C. until analysis by LCMS. In addition, at the 5 and 30 min and 4 h post-dose time points, the whole brain was rapidly removed from the carcass soon after the blood collection. The whole brains were blotted to remove excess blood, placed into pre-weighed polypropylene vials, and weighed. The brains were snap frozen in dry ice and subsequently stored frozen (−80° C.) until analysis.
Concentrations of test compound in plasma and tissue samples were determined using an LCMS/MS method validated for linearity, accuracy, precision, matrix factor and recovery (Table 2). Test compound standard solutions were diluted from a concentrated stock solution (32 mM in H2O) using 50% can in H2O (v/v) and a calibration curve was prepared in a matched matrix to the test samples.
Plasma: The plasma calibration curve was prepared by spiking aliquots of blank mouse plasma (25 μL) with test compound standard solutions (5 μL) and internal standard solution (5 μL of diazepam, 5 μg/mL in 50% acetonitrile in water). Test plasma samples (25 μL) were thawed, mixed, and then spiked with internal standard solution (5 μL). Plasma protein precipitation was performed by addition of acetonitrile (3-fold volume ratio) and thorough vortex mixing. Samples were centrifuged (RCF=9391×g) for 3 minutes and the supernatant (90 μL) was collected for analysis.
Tissue: Pre-weighed tissue samples (brain) were homogenised using a glass rod in buffer containing an EDTA/potassium fluoride solution (0.1 M/4 mg/mL) as a stabilisation cocktail to minimise the potential for ex vivo degradation (3 mL cocktail/g tissue). The tissue homogenate was briefly centrifuged (RCF=79×g) for 10 seconds to separate the foam layer before transferring an aliquot of the tissue homogenate (200 μL) to a fresh Eppendorf tube for sample extraction. Calibration standards were prepared by spiking blank brain homogenate (200 μL) with the solution standards (10 μL) and the internal standard (10 μL). Study samples were similarly prepared, except that acetonitrile (10 μL) was added instead of solution standards to maintain the same volume. Protein precipitation was carried out by the addition of a 3-fold volume of acetonitrile, followed by vortex mixing and centrifugation (RCF=9391×g) for 3 min to recover the supernatant for analysis.
Replicate analysis: Triplicate analytical replicate (ARs) samples were prepared similarly to the standards for each sample type at three concentrations (50, 500 and 2,000 ng/ml) and repeat injections of these ARs were included throughout the analytical run to assess assay performance. The extraction of the test compound from the standards and ARs were conducted as described above.

[2] = agonist activity, Ca2+ flux, HEK293 cells
[3] = agonist activity, Ca2+ flux, HEK293 cells, read-out: 5-HT2A EC50
[4] = agonist activity, Ca2+ flux, CHO-K1 cells
[5] = agonist activity, Ca2+ flux, CHO-K1 cells, read-out: 5-HT2B EC50
[6] = agonist activity, Ca2+ flux, HEK293 cells, read-out: 5-HT2C EC50
[7] = 0.083 h, IP 10 mg/kg, individual mouse, 10 mg/kg
[8] = 0.5 h, IP 10 mg/kg, individual mouse, 10 mg/kg
[9] = 4 h, IP 10 mg/kg, individual mouse, 10 mg/kg
[10] = mouse, plasma, male C57BL/6 mice, IP 10 mg/kg

T1 sequence (P28223 whole entry): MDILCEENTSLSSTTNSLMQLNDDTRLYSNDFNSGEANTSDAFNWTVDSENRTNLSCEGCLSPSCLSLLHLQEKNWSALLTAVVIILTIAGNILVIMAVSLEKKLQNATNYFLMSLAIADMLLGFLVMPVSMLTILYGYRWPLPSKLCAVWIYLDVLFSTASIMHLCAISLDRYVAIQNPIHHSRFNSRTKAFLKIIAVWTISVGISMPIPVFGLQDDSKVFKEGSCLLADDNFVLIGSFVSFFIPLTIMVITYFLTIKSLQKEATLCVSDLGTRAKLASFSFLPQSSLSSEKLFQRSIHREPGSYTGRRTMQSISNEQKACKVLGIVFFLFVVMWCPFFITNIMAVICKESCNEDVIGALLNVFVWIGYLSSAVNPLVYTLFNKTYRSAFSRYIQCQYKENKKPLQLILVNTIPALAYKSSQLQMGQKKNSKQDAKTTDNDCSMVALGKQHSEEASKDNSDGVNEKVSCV

In the case of CCN(C)CCc1c[nH]c2cc(C)c(OC)cc12 [Example P-42, N-ethyl-2-(5-methoxy-6-methyl-1H-indol-3-yl)-N-methylethan-1-amine], the Emax (5-HT2A receptor; [2]) is reported as 88.2%, the EC50 (5-HT2A receptor; [3]) is reported as 26.5 nM and the Emax (5-HT2B receptor; [4]) is reported as 8.39%. For the same compound, the EC50 (5-HT2B receptor; [5]) was > 10000 nM, the Emax (5-HT2C receptor; [2]) was 85.8% and the EC50 (5-HT2C receptor; [6]) was 68.5 nM. For the same compound, the “B:P Ratio, Individual” value [1, 7] was 3.8 and 7.1 and 2.0, the “Plasma Concentration, Individual” value [1, 7] was 1760 nM and 3440 nM and the concentration at 0.5 h ([1]; 0.083 h, IP 10 mg/kg, individual mouse, 10 mg/kg, read-out: Brain Parenchyma Concentration, Individual) was 12600 nM and 7010 nM. The “B:P Ratio, Individual” value [1, 8] was 20 and 11, the “Plasma Concentration, Individual” value [1, 8] was 1880 nM and 1820 nM and the concentration at 0.5 h ([1]; 0.5 h, IP 10 mg/kg, individual mouse, 10 mg/kg, read-out: Brain Parenchyma Concentration, Individual) was 37300 nM and 19900 nM. The “B:P Ratio, Individual” value [1, 9] was 18 and 14 and 8.2, the “Plasma Concentration, Individual” value [1, 9] was 38.4 nM and 20.9 nM and the concentration at 0.5 h ([1]; 4 h, IP 10 mg/kg, individual mouse, 10 mg/kg, read-out: Brain Parenchyma Concentration, Individual) was 408 nM and 530 nM and 171 nM. It also gave a concentration at 0.083 h ([1]; male, C57BL/6, mouse, brain, ip, 10 mg/kg, 0.083 h, individual mouse, read-out: Brain Parenchyma Concentration, Individual) of 10100 nM, a concentration at 0.083 h ([1]; male, C57BL/6, mouse, brain, ip, 10 mg/kg, 0.083 h, n = 3, read-out: Brain Parenchyma Concentration, Mean ± SD) of 9900 ± 2790 nM and a concentration at 0.5 h ([1]; male, C57BL/6, mouse, brain, ip, 10 mg/kg, 0.5 h, individual mouse, read-out: Brain Parenchyma Concentration, Individual) of 21300 nM. For the same compound, the concentration at 0.5 h ([1]; male, C57BL/6, mouse, brain, ip, 10 mg/kg, 0.5 h, n = 3, read-out: Brain Parenchyma Concentration, Mean ± SD) was 26200 ± 9680 nM, the concentration at 4 h ([1]; male, C57BL/6, mouse, brain, ip, 10 mg/kg, 4 h, n = 3, read-out: Brain Parenchyma Concentration, Mean ± SD) was 370 ± 182 nM and the Kp at 0.083 h ([1]; male, C57BL/6, mouse, brain/plasma, ip, 10 mg/kg, 0.083 h, n = 3, read-out: B:P Ratio, Mean ± SD) was 4.3 ± 2.6. For the same compound, the Kp at 0.5 h ([1]; male, C57BL/6, mouse, brain/plasma, ip, 10 mg/kg, 0.5 h, individual mouse, read-out: B:P Ratio, Individual) was 18, the Kp at 0.5 h ([1]; male, C57BL/6, mouse, brain/plasma, ip, 10 mg/kg, 0.5 h, n = 3, read-out: B:P Ratio, Mean ± SD) was 16 ± 4.6 and the Kp at 4 h ([1]; male, C57BL/6, mouse, brain/plasma, ip, 10 mg/kg, 4 h, n = 3, read-out: B:P Ratio, Mean ± SD) was 13 ± 5. For the same compound, the concentration at 0.083 h ([1]; male, C57BL/6, mouse, plasma, ip, 10 mg/kg, 0.083 h, individual mouse, read-out: Plasma Concentration, Individual) was 2650 nM, the concentration at 0.083 h ([1]; male, C57BL/6, mouse, plasma, ip, 10 mg/kg, 0.083 h, n = 3, read-out: Plasma Concentration, Mean ± SD) was 2620 ± 840 nM and the concentration at 0.5 h ([1]; male, C57BL/6, mouse, plasma, ip, 10 mg/kg, 0.5 h, individual mouse, read-out: Plasma Concentration, Individual) was 1200 nM. It also gave a concentration at 0.5 h ([1]; male, C57BL/6, mouse, plasma, ip, 10 mg/kg, 0.5 h, n = 3, read-out: Plasma Concentration, Mean ± SD) of 1640 ± 376 nM, a concentration at 4 h ([1]; male, C57BL/6, mouse, plasma, ip, 10 mg/kg, 4 h, individual mouse, read-out: Plasma Concentration, Individual) of 22.5 nM and a concentration at 4 h ([1]; male, C57BL/6, mouse, plasma, ip, 10 mg/kg, 4 h, n = 3, read-out: Plasma Concentration, Mean ± SD) of 27.3 ± 9.7 nM. The Cmax [1, 10] was 2620 nM, the Tmax [1, 10] was 4.98 min and the AUC(0-inf) ([1]; mouse, plasma, male C57BL/6 mice, IP 10 mg/kg, read-out: Plasma AUC0-inf) was 2.36 µM·h. It also gave a half-life ([1]; mouse, male C57BL/6 mice, IP 10 mg/kg, plasma, read-out: Apparent T1/2 (converted)) of 36 min.

COc1ccc(C)c2[nH]cc(CCN(C)C(C)C)c12 [Example P-81, N-(2-(4-methoxy-7-methyl-1H-indol-3-yl)ethyl)-N-methylpropan-2-amine] gave an Emax (5-HT2A receptor; [2]) of 41.4%, an EC50 (5-HT2A receptor; [3]) of 126 nM and an Emax (5-HT2B receptor; [4]) of 0.59%. For the same compound, the EC50 (5-HT2B receptor; [5]) was > 10000 nM, the Emax (5-HT2C receptor; [2]) was 38.8% and the EC50 (5-HT2C receptor; [6]) was 764 nM.

In the case of CC(C)N(C)CCc1c[nH]c2cc(F)cc(F)c12 [Example P-149, N-(2-(4,6-difluoro-1H-indol-3-yl)ethyl)-N-methylpropan-2-amine], the Emax (5-HT2A receptor; [2]) is reported as 66.8%, the EC50 (5-HT2A receptor; [3]) is reported as 52.4 nM and the Emax (5-HT2B receptor; [4]) is reported as 30.1%. The EC50 (5-HT2B receptor; [5]) was ≥ 10000 nM and the Emax (5-HT2C receptor; [2]) was 30.1%.

With COc1cc(F)cc2[nH]cc(CCN(C(C)C)C(C)C)c12 [Example P-100, N-(2-(6-fluoro-4-methoxy-1H-indol-3-yl)ethyl)-N-isopropylpropan-2-amine] the Emax (5-HT2A receptor; [2]) was 91.3%, the EC50 (5-HT2A receptor; [3]) was 51.4 nM and the Emax (5-HT2B receptor; [4]) was 128%. The EC50 (5-HT2B receptor; [5]) was 436 nM, the Emax (5-HT2C receptor; [2]) was 76.9% and the EC50 (5-HT2C receptor; [6]) was 864 nM.

Compound COc1ccc(C)c2[nH]cc(CCN(C(C)C)C(C)C)c12 [Example P-83, N-isopropyl-N-(2-(4-methoxy-7-methyl-1H-indol-3-yl)ethyl)propan-2-amine] has an Emax (5-HT2A receptor; [2]) of 79.2%, an EC50 (5-HT2A receptor; [3]) of 619 nM and an Emax (5-HT2B receptor; [4]) of 30%. The EC50 (5-HT2B receptor; [5]) was > 10000 nM, the Emax (5-HT2C receptor; [2]) was 66.7% and the EC50 (5-HT2C receptor; [6]) was 1620 nM.

For CN(C)CCc1c[nH]c2cc3occc3cc12 [Example P-4, 2-(7H-furo[3,2-f]indol-5-yl)-N,N-dimethylethan-1-amine], the EC50 (5-HT2A receptor) was 9.39 nM, the Emax (5-HT2A receptor; [2]) was 70.4% and the EC50 (5-HT2B receptor) was > 10000 nM. The Emax (5-HT2B receptor; [4]) was 4.68%, the EC50 (5-HT2C receptor) was 6.11 nM and the Emax (5-HT2C receptor; [2]) was 78.9%.

With CCCN(CCC)CCc1c[nH]c2ccc(C)c(O)c12 [Example P-68, 3-(2-(dipropylamino)ethyl)-5-methyl-1H-indol-4-ol] the Emax (5-HT2A receptor; [2]) was 102%, the EC50 (5-HT2A receptor; [3]) was 148 nM and the Emax (5-HT2B receptor; [4]) was 64.3%. For the same compound, the EC50 (5-HT2B receptor; [5]) was ≥ 10000 nM, the Emax (5-HT2C receptor; [2]) was 78% and the EC50 (5-HT2C receptor; [6]) was 871 nM.

Compound CCN(C)CCc1c[nH]c2c(C)ccc(OC)c12 [Example P-80, N-ethyl-2-(4-methoxy-7-methyl-1H-indol-3-yl)-N-methylethan-1-amine] has an Emax (5-HT2A receptor; [2]) of 30%, an EC50 (5-HT2A receptor; [3]) of 113 nM and an Emax (5-HT2B receptor; [4]) of 0.74%. For the same compound, the EC50 (5-HT2B receptor; [5]) was > 10000 nM, the Emax (5-HT2C receptor; [2]) was 66.7% and the EC50 (5-HT2C receptor; [6]) was 140 nM.

CCN(C)CCc1c[nH]c2cc(F)c(F)cc12 [Example P-154, 2-(5,6-difluoro-1H-indol-3-yl)-N-ethyl-N-methylethan-1-amine] showed an Emax (5-HT2A receptor; [2]) of 92.4%, an EC50 (5-HT2A receptor; [3]) of 14.8 nM and an Emax (5-HT2B receptor; [4]) of 17.6%. The EC50 (5-HT2B receptor; [5]) was ≥ 10000 nM, the Emax (5-HT2C receptor; [2]) was 102% and the EC50 (5-HT2C receptor; [6]) was 24.9 nM.

COc1cc(F)c2[nH]cc(CCN(C)C(C)C)c2c1 [Example P-116, N-(2-(7-fluoro-5-methoxy-1H-indol-3-yl)ethyl)-N-methylpropan-2-amine] gave an Emax (5-HT2A receptor; [2]) of 60.2%, an EC50 (5-HT2A receptor; [3]) of 15.7 nM and an Emax (5-HT2B receptor; [4]) of 23.1%. The EC50 (5-HT2B receptor; [5]) was 136 nM, the Emax (5-HT2C receptor; [2]) was 60.5% and the EC50 (5-HT2C receptor; [6]) was 720 nM.

In the case of COc1cc2c(CCN(C(C)C)C(C)C)c[nH]c2cc1C [Example P-49, N-isopropyl-N-(2-(5-methoxy-6-methyl-1H-indol-3-yl)ethyl)propan-2-amine], the Emax (5-HT2A receptor; [2]) is reported as 83.5%, the Emax (5-HT2B receptor; [4]) is reported as 74.8% and the Emax (5-HT2C receptor; [2]) is reported as 87%.

COc1ccc(C)c2[nH]cc(CCN(C)C)c12 [Example P-13, 2-(4-methoxy-7-methyl-1H-indol-3-yl)-N,N-dimethylethan-1-amine] showed an Emax (5-HT2A receptor; [2]) of 36.1%, an EC50 (5-HT2A receptor; [3]) of 107 nM and an Emax (5-HT2B receptor; [4]) of 0.67%. For the same compound, the EC50 (5-HT2B receptor; [5]) was > 10000 nM, the Emax (5-HT2C receptor; [2]) was 69.5% and the EC50 (5-HT2C receptor; [6]) was 56 nM.

COc1ccc(F)c2[nH]cc(CCN(C(C)C)C(C)C)c12 [Example P-105, N-(2-(7-fluoro-4-methoxy-1H-indol-3-yl)ethyl)-N-isopropylpropan-2-amine] gave an Emax (5-HT2A receptor; [2]) of 91.2%, an EC50 (5-HT2A receptor; [3]) of 147 nM and an Emax (5-HT2B receptor; [4]) of 127%. It also gave an EC50 (5-HT2B receptor; [5]) of 134 nM, an Emax (5-HT2C receptor; [2]) of 92.6% and an EC50 (5-HT2C receptor; [6]) of 1200 nM.

With Cc1nc2c(ccc3[nH]cc(CCN(C)C)c32)o1 [Example P-131, N,N-dimethyl-2-(2-methyl-6H-oxazolo[4,5-e]indol-8-yl)ethan-1-amine] the EC50 (5-HT2A receptor) was 10.6 nM, the Emax (5-HT2A receptor; [2]) was 97.2% and the EC50 (5-HT2B receptor) was > 10000 nM. It also gave an Emax (5-HT2B receptor; [4]) of 3.93%, an EC50 (5-HT2C receptor) of 15.8 nM and an Emax (5-HT2C receptor; [2]) of 90.1%.
